Test results published in patent US20100113602A1, “USE OF HISTONE DEACETYLASE INHIBITORS FOR THE TREATMENT OF CENTRAL NERVOUS SYSTEM METASTASES” (The United States of America,as represented by the …, priority 2007, published 2010).
pIC50: −log10 of the molar value. Read-outs that look alike come from different tables or passages of the source.

Experiments:
[1] = system: acetyl Histone H3, acetyl histone H4, p21; experiment: Western blot of 231-BR cell lysates after HDI treatment; type: cell-based, human; conditions: 231-BR cells; depsipeptide 10 ng/mL or SAHA 5 μM; 0, 8, 24, 48 hours
Description: All cell lines are deemed free of mycoplasma and human pathogens and test negative in mouse antibody production (MAP) tests. […] Drug solution is added once at the beginning and left on the cells for the indicated duration (0, 8, 24, and 48 hours). Controls are performed in the same way with the same amount of vehicle solution for each drug, but without the drug. The vehicle can be DMSO. Cells are lysed according to standard procedures and Western blotting is performed. Primary antibodies specific to the targeted proteins are used including antibodies specific to acetyl Histone H3, acetyl histone H4, p21, and α-tubulin. Horseradish peroxidase-conjugated secondary antibodies purchased from Santa Cruz Biotechnology (Santa Cruz, Calif.) are used at dilutions of 1:5000. Proteins are visualized using enhanced chemilluminescence (Cell Signaling) and autoradiography. […] As histones H3 and H4 become hyperacetylated, protein levels of the cyclin-dependent kinase inhibitor p21 increase. Those changes indicate HDAC inhibition.

231-BR cells [2] = experiment: MTT proliferation / colonization assay of 231-BR cells; type: cell-based, human; conditions: for Colonization Data, % Control: 231-BR cells, 72-hour incubation, SAHA 5 μM, depsipeptide 10 ng/mL, VPA 10 mM, TSA 100 ng/mL, ± standard deviation
Description: The prepared cells are plated at a density of 15,000 cells/well in a 96 well plate and incubated for 3 hours to permit attachment. Cells are then washed with PBS, and media containing either 0.1% or 1% FBS is added to the cells. […] After a 72-hour incubation, 0.5 mg/mL MTT (Sigma, St. Louis, Mo.) is added and plates are incubated for 2 hours. Media is then aspirated, and MTT dissolved in DMSO for 30 minutes, after which the absorbance is read at a wavelength of 570 nm. […] Data in Table 4 is shown as percent of colonies formed±standard deviation compared to untreated controls. Results are representative of three independent experiments in quintuplicate. Analysis of variance (ANOVA) is used to assess in vitro functions of vehicle treated versus vorinostat treated cells. P values can be two-tailed. Tests can be performed using GraphPad InStat version 3.0 software.

231-BR cells [3] = experiment: 48-well Boyden chamber chemotaxis (motility) assay; type: cell-based, human; conditions: 24 hours drug treatment, 4 hours migration, SAHA 5 μM, depsipeptide 10 ng/mL, VPA 10 mM, TSA 100 ng/mL, ± standard deviation; for Motility Data, mean number of cells that migrate per well, 0.5% FCS: 0.5% FCS chemoattractant; for Motility Data, mean number of cells that migrate per well, Control: Control (no FCS chemoattractant)
Description: 231-BR Cells are used as described in Example 2. A 48-well Boyden chemotaxis chamber is used. Polycarbonate PVP-free Nucleopore filters (8 μm pore size) are coated with 0.01% collagen (BD Bioscience). […] Drug concentrations used are as described in Example 2. 231-BR cells, after 24 hours of vorinostat, other drug treatment, or control are added to the top chamber in DMEM with 1 mg/ml BSA at a concentration of 2×10^6 cells/ml. Chambers are incubated for 4 hours in a 37° C. incubator with 5% CO2. After chambers are disassembled, filters are fixed and stained with reagents from a Diff-Quik® Kit (Fischer Scientific). Cells that migrate through the Boyden chamber are counted using a light microscope. Representative areas are counted to determine the number of cells that have migrated for each well. Data in Table 5 are shown as mean number of cells±standard deviation that migrate per well. Analysis of variance (ANOVA) is used to assess in vitro functions of vehicle treated versus vorinostat treated cells. P values can be two-tailed. Tests can be performed using GraphPad InStat version 3.0 software.

[4] = system: MDA-MB-231-BR cells brain metastases; experiment: Brain metastasis model, intracardiac MDA-MB-231-BR cells in nude mice (Example 5); type: in vivo, Balb/c nude mice; design: key to Mean Large Mets: mean no. of large metastases (>50 microns^2) per mouse; key to Mean Micromets: mean no. of metastases in 10 step sections of one hemisphere; conditions: for Mean Large Mets: large >50 microns^2
Description: Cells are prepared as described in Example 2 with additional preparation as follows. The retroviral vector pLEGFP-C1 (BD Biosciences, San Jose, Calif.) is transfected into murine fibroblast PT67 packaging cells using Effectene reagent according to the manufacturer's protocol (Qiagen, Germantown, Md.). After 24 hours, enhanced green fluorescent protein (EGFP)-expressing cells are selected in the presence of 1 mg/mL G418 (Invitrogen, Carlsbad, Calif.), and colonies are expanded. Virus is harvested and filtered through a 0.45 um Millex-HA syringe-driven filter (Millipore, Billerica, Mass.) and 231-BR cells are infected with retrovirus for 6 hours. The following day, 231-BR cells are selected in the presence of 0.8 mg/mL G418, and EGFP expression in 95-99% of the cells is confirmed by fluorescent microscopy.
All animal experiments are conducted under an approved Animal Use Agreement with the NCI. Under isoflurane anesthesia, 20 female Balb/c nude mice (Charles River Laboratories, Frederick, Md.) 5-7 weeks old are inoculated with 500,000 (Experiment 1) or 100,000 (Experiment 2) MDA-MB-231-BR cells in 0.1 mL PBS in the left ventricle of the heart. Mice are monitored daily for signs of ill health. Three days after tumor cell inoculation mice are randomized to treatment groups and treatment is started. […] After 21 days of treatment, mice are euthanized under CO2 anesthesia and brains are excised for imaging. EGFP is detected in whole brains by the Maestro 420 In Vivo Spectral Imaging System (Cambridge Research and Instrumentation, Woburn, Mass.), using software (e.g., Nuance Technology, Burlington, Mass.) to distinguish or unmix images of fluorescence from multiple sources. After imaging, mouse brains are bisected along the sagittal plane and the right hemisphere of the brain is fixed in 4% paraformaldehyde for 24-48 hours at 4° C., then transferred to 20% sucrose overnight at 4° C. and frozen (for EGFP detection/histology). The left hemisphere is forallin-fixed and paraffin embedded for immunohistochemistry. Ten micron brain sections are serially cut and processed for either EGFP microscopy or histology. To detect EGFP, slides are dried at room temperature and 25 uL Vectashield HardSet Mounting Media with DAPI was added (Vector Laboratories, Burlingame, Calif.). Images are captured on a Zeiss Axioskop 2 microscope (Thornwood, N.Y.) using OpenLab software (Improvision, Lexington, Mass.). For staining with hematoxylin and eosin, a standard protocol is followed. Ten serial sections every 300 microns through the brain are analyzed using a 5× objective on a Zeiss microscope, containing an ocular grid with squares of 0.8 mm^2.
Every micro- or large (>50 microns^2) metastasis in each section is tabulated. Data are representative of two experiments conducted. Wilcoxon rank sum test is used to compare the number of total metastases and the number of large metastases in vehicle treated versus vorinostat treated mice. Tests can be performed using GraphPad InStat version 3.0 software. “Mean Micromets” in Tables 6 and 7 refer to the mean number of metastases counted in 10 step sections from one hemisphere of the brain. “Mean Large Mets” in Tables 6 and 7 refer to the size of metastases determined by a 16 mm^2 ocular grid. Large metastases are greater than 50 microns^2.

[5] = system: MDA-MB-231BR cells brain metastases; experiment: Brain metastasis model, timing of SAHA administration (Example 6); type: in vivo, nude mice; conditions: for Large Metastases, Mean number per section: vehicle 7.65; for Micrometastases, Mean number per section: vehicle 170
Description: As described in Example 5, 175,000 MDA-MB-231BR cells in 0.1 mL PBS are injected into the left cardiac ventricle of the heart of nude mice. […] On day [X], mice are euthanized under CO2 anesthesia and brains are excised for imaging as described in Example 5.
Micro- and large (>50 microns^2) metastases are tabulated. The data set forth in Table 8 are representative of two experiments.

[6] = mouse, in vivo
Description: All animal experiments are conducted under an approved Animal Use Agreement with the NCI. Under isoflurane anesthesia, 20 female Balb/c nude mice (Charles River Laboratories, Frederick, Md.) 5-7 weeks old are inoculated with 500,000 (Experiment 1) or 100,000 (Experiment 2) MDA-MB-231-BR cells in 0.1 mL PBS in the left ventricle of the heart. Mice are monitored daily for signs of ill health. Three days after tumor cell inoculation mice are randomized to treatment groups and treatment is started. […]. After 21 days of treatment, mice are euthanized under CO2 anesthesia and brains are excised for imaging. EGFP is detected in whole brains by the Maestro 420 In Vivo Spectral Imaging System (Cambridge Research and Instrumentation, Woburn, Mass.), using software (e.g., Nuance Technology, Burlington, Mass.) to distinguish or unmix images of fluorescence from multiple sources. […] Ten serial sections every 300 microns through the brain are analyzed using a 5× objective on a Zeiss microscope, containing an ocular grid with squares of 0.8 mm^2.
. […] “Mean Micromets” in Tables 6 and 7 refer to the mean number of metastases counted in 10 step sections from one hemisphere of the brain. “Mean Large Mets” in Tables 6 and 7 refer to the size of metastases determined by a 16 mm^2 ocular grid. […]

[7] = Homo sapiens, read-out: IC50 (growth inhibition, absorbance at 570 nm)
[8] = 150 mg/kg SAHA IP once daily starting on day 3 post-injection until day 21
[9] = 150 mg/kg SAHA IP once daily starting on day 7 post-injection until day 21
[10] = 150 mg/kg SAHA IP once daily starting on day 14 post-injection until day 21

O=C(CCCCCCC(=O)Nc1ccccc1)NO [SAHA, N-Hydroxy-N′-phenyloctanediamide]
acetylation of histones H3 and H4 (Western blot) [1]: hyperacetylated
Colonization Data, % Control (231-BR cells [2]): 47 ± 1.9 % Control
pIC50 (231-BR cells [2]; [7]): 4.90
Motility Data, mean number of cells that migrate per well, 0.5% FCS (231-BR cells [3]): 756 ± 56
Motility Data, mean number of cells that migrate per well, Control (231-BR cells [3]): 67 ± 6
Mean Micromets ([4]; Experiment 1 (500,000 cells), 100 mg/kg SAHA IP once daily 21 days, vehicle 205.5): 140.4
Mean Micromets ([4]; Experiment 1 (500,000 cells), 150 mg/kg SAHA IP once daily 21 days (lowered from 200 mg/kg), vehicle 205.5): 151.8
Mean Large Mets ([4]; Experiment 1, 100 mg/kg SAHA IP once daily 21 days, vehicle 6.8): 2.9
Mean Large Mets ([4]; Experiment 1, 150 mg/kg SAHA IP once daily 21 days (lowered from 200 mg/kg), vehicle 6.8): 3.5
Mean Micromets ([4]; Experiment 2 (100,000 cells), 100 mg/kg SAHA IP once daily 21 days, vehicle 72.5): 78.3
Mean Micromets ([4]; Experiment 2 (100,000 cells), 150 mg/kg SAHA IP once daily 21 days, vehicle 72.5): 66.6
Mean Large Mets ([4]; Experiment 2, 100 mg/kg SAHA IP once daily 21 days, vehicle 3.3): 4.4
Mean Large Mets ([4]; Experiment 2, 150 mg/kg SAHA IP once daily 21 days, vehicle 3.3): 1.5
number of large (>50 micron^2) brain metastases, in words ([4]; in vivo, mice, IP SAHA vs vehicle): reduces the number
Large Metastases, Mean number per section [5, 8]: 2.89
Micrometastases, Mean number per section [5, 8]: 122
Large Metastases, Mean number per section [5, 9]: 4.94
Micrometastases, Mean number per section [5, 9]: 151
Large Metastases, Mean number per section [5, 10]: 5.96
Micrometastases, Mean number per section [5, 10]: 171
reduction in large metastases ([5]; 150 mg/kg SAHA starting on day 3 post-injection, vs vehicle, P<0.001): 57%
reduction in micrometastases ([5]; 150 mg/kg SAHA starting on day 3 post-injection, vs vehicle, P=0.017): 28%
reduction (large metastases) ([5]; 150 mg/kg SAHA starting on day 7 post-injection, vs vehicle, P=0.008): 34%
reduction in large metastases ([5]; 150 mg/kg SAHA starting on day 14 post-injection, vs vehicle, not statistically significant): 22%
toxicity of the higher dosage [6]: toxicity

CC(/C=C/C(=O)NO)=C\[C@@H](C)C(=O)c1ccc(N(C)C)cc1 [Trichostatin (TSA), trichostatin]
Colonization Data, % Control (231-BR cells [2]): 30 ± 3.4 % Control
Motility Data, mean number of cells that migrate per well, 0.5% FCS (231-BR cells [3]): 785 ± 17
Motility Data, mean number of cells that migrate per well, Control (231-BR cells [3]): 108 ± 13

C/C=C1\NC(=O)[C@H]2CSSCC/C=C/[C@H](CC(=O)N[C@H](C(C)C)C(=O)N2)OC(=O)[C@H](C(C)C)NC1=O [Depsipeptide]
acetylation of histones H3 and H4 (Western blot) [1]: hyperacetylated
protein levels of the cyclin-dependent kinase inhibitor p21 (Western blot) [1]: increase
Colonization Data, % Control (231-BR cells [2]): 10 ± 2.5 % Control
dose at which noticeable inhibition occurs (231-BR cells [2]; 231BR cells): ≥ 0.001 µg/mL
IC50 (231-BR cells [2]; [7]): 1.5 µg/mL
Motility Data, mean number of cells that migrate per well, 0.5% FCS (231-BR cells [3]): 678 ± 33
Motility Data, mean number of cells that migrate per well, Control (231-BR cells [3]): 129 ± 23

CCCC(CCC)C(=O)O [Valporic Acid, valproic acid]
Colonization Data, % Control (231-BR cells [2]): 46 ± 5.3 % Control
Motility Data, mean number of cells that migrate per well, 0.5% FCS (231-BR cells [3]): 755 ± 37
Motility Data, mean number of cells that migrate per well, Control (231-BR cells [3]): 242 ± 55
